Laboratory results taken from PubChem BioAssay (NCI).
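Exposure lasted 48 hours, with cells grown in 96-well plates and compounds tested at five concentrations. The concentration for full growth arrest is given as TGI.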

Key:
Test in all cases: NCI-60 cell line screen, 48 h
U251 CNS = test system: U251 CNS
MDA-N = test system: MDA-N
M14 melanoma = test system: M14 melanoma
ACHN renal = test system: ACHN renal
A549 NSCLC = test system: A549 NSCLC
SK-MEL-5 melanoma = test system: SK-MEL-5 melanoma
LOX IMVI melanoma = test system: LOX IMVI melanoma
MOLT-4 leukemia = test system: MOLT-4 leukemia
KM12 colon = test system: KM12 colon
HCT-116 colon = test system: HCT-116 colon
CAKI-1 renal = test system: CAKI-1 renal
MDA-MB-231 breast = test system: MDA-MB-231 breast
CCRF-CEM leukemia = test system: CCRF-CEM leukemia
SK-OV-3 ovarian = test system: SK-OV-3 ovarian
NCI-H226 lung = test system: NCI-H226 lung
OVCAR-3 ovarian = test system: OVCAR-3 ovarian
SW-620 colon = test system: SW-620 colon
SK-MEL-28 melanoma = test system: SK-MEL-28 melanoma
HL-60(TB) leukemia = test system: HL-60(TB) leukemia
SNB-19 CNS = test system: SNB-19 CNS
HCC-2998 colon = test system: HCC-2998 colon
HCT-15 colon = test system: HCT-15 colon
COLO 205 colon = test system: COLO 205 colon
SN12C renal = test system: SN12C renal
SR leukemia = test system: SR leukemia
TK-10 renal = test system: TK-10 renal
PC-3 prostate = test system: PC-3 prostate
MCF7 breast = test system: MCF7 breast
BT-549 breast = test system: BT-549 breast
HT29 colon = test system: HT29 colon
OVCAR-4 ovarian = test system: OVCAR-4 ovarian
MDA-MB-435 = test system: MDA-MB-435
OVCAR-8 ovarian = test system: OVCAR-8 ovarian
SK-MEL-2 melanoma = test system: SK-MEL-2 melanoma
K-562 leukemia = test system: K-562 leukemia
SF-268 CNS = test system: SF-268 CNS
IGROV1 ovarian = test system: IGROV1 ovarian
UO-31 renal = test system: UO-31 renal
NCI-H522 lung = test system: NCI-H522 lung
SF-295 CNS = test system: SF-295 CNS
RPMI-8226 leukemia = test system: RPMI-8226 leukemia
NCI-H460 lung = test system: NCI-H460 lung
SF-539 CNS = test system: SF-539 CNS
HOP-92 NSCLC = test system: HOP-92 NSCLC
EKVX NSCLC = test system: EKVX NSCLC
NCI-H23 lung = test system: NCI-H23 lung
HS 578T breast = test system: HS 578T breast
786-0 renal = test system: 786-0 renal
UACC-62 melanoma = test system: UACC-62 melanoma
NCI/ADR-RES ovarian = test system: NCI/ADR-RES ovarian
OVCAR-5 ovarian = test system: OVCAR-5 ovarian
UACC-257 melanoma = test system: UACC-257 melanoma
A498 renal = test system: A498 renal
T-47D breast = test system: T-47D breast
DU-145 prostate = test system: DU-145 prostate
HOP-62 NSCLC = test system: HOP-62 NSCLC
MALME-3M melanoma = test system: MALME-3M melanoma
RXF 393 renal = test system: RXF 393 renal
SNB-75 CNS = test system: SNB-75 CNS

With Cc1ccc(C(=O)N/N=C(\N=Nc2ccccc2[N+](=O)[O-])c2ccc(N(C)C)cc2)cc1 the TGI (U251 CNS) was > 100 µM, the TGI (MDA-N) was > 100 µM and the TGI (M14 melanoma) was > 100 µM. The TGI (ACHN renal) was > 100 µM, the TGI (A549 NSCLC) was > 100 µM and the TGI (SK-MEL-5 melanoma) was > 100 µM. The TGI (LOX IMVI melanoma) was > 100 µM, the TGI (MOLT-4 leukemia) was > 100 µM and the TGI (KM12 colon) was > 100 µM. For the same molecule, the TGI (HCT-116 colon) was > 100 µM, the TGI (CAKI-1 renal) was > 100 µM and the TGI (MDA-MB-231 breast) was > 100 µM. The TGI (CCRF-CEM leukemia) was > 100 µM, the TGI (SK-OV-3 ovarian) was > 100 µM and the TGI (NCI-H226 lung) was > 100 µM. For the same molecule, the TGI (OVCAR-3 ovarian) was > 100 µM, the TGI (SW-620 colon) was > 100 µM and the TGI (SK-MEL-28 melanoma) was > 100 µM. The TGI (HL-60(TB) leukemia) was > 100 µM, the TGI (SNB-19 CNS) was > 100 µM and the TGI (HCC-2998 colon) was > 100 µM. The TGI (HCT-15 colon) was > 100 µM, the TGI (COLO 205 colon) was > 100 µM and the TGI (SN12C renal) was > 100 µM. The TGI (SR leukemia) was > 100 µM, the TGI (TK-10 renal) was > 100 µM and the TGI (PC-3 prostate) was > 100 µM. The TGI (MCF7 breast) was > 100 µM, the TGI (BT-549 breast) was > 100 µM and the TGI (HT29 colon) was > 100 µM. For the same molecule, the TGI (OVCAR-4 ovarian) was > 100 µM, the TGI (MDA-MB-435) was > 100 µM and the TGI (OVCAR-8 ovarian) was > 100 µM. For the same molecule, the TGI (SK-MEL-2 melanoma) was > 100 µM, the TGI (K-562 leukemia) was > 100 µM and the TGI (SF-268 CNS) was > 100 µM. The TGI (IGROV1 ovarian) was > 100 µM, the TGI (UO-31 renal) was > 100 µM and the TGI (NCI-H522 lung) was > 100 µM. For the same molecule, the TGI (SF-295 CNS) was > 100 µM, the TGI (RPMI-8226 leukemia) was > 100 µM and the TGI (NCI-H460 lung) was > 100 µM. For the same molecule, the TGI (SF-539 CNS) was > 100 µM, the TGI (HOP-92 NSCLC) was > 100 µM and the TGI (EKVX NSCLC) was > 100 µM. The TGI (NCI-H23 lung) was > 100 µM, the TGI (HS 578T breast) was > 100 µM and the TGI (786-0 renal) was > 100 µM. The TGI (UACC-62 melanoma) was > 100 µM, the TGI (NCI/ADR-RES ovarian) was > 100 µM and the TGI (OVCAR-5 ovarian) was > 100 µM. The TGI (UACC-257 melanoma) was > 100 µM.
In the case of COc1ccc(-c2nc(SCC(=O)N/N=C/c3ccc(O)c(OC)c3)[nH]c2-c2ccc(OC)cc2)cc1, the TGI (U251 CNS) is reported as 40.8 µM, the TGI (MDA-N) is reported as 52.3 µM and the TGI (M14 melanoma) is reported as 56.6 µM. For the same molecule, the TGI (ACHN renal) was 32.5 µM, the TGI (A549 NSCLC) was > 100 µM and the TGI (SK-MEL-5 melanoma) was 31.7 µM. For the same molecule, the TGI (LOX IMVI melanoma) was 46.7 µM, the TGI (A498 renal) was 33.2 µM and the TGI (KM12 colon) was > 100 µM. For the same molecule, the TGI (HCT-116 colon) was 33.3 µM, the TGI (CAKI-1 renal) was > 100 µM and the TGI (MDA-MB-231 breast) was 84.5 µM. For the same molecule, the TGI (CCRF-CEM leukemia) was 92.2 µM, the TGI (SK-OV-3 ovarian) was > 100 µM and the TGI (OVCAR-3 ovarian) was 48 µM. The TGI (SW-620 colon) was > 100 µM, the TGI (SK-MEL-28 melanoma) was 74.8 µM and the TGI (HL-60(TB) leukemia) was 32.4 µM. The TGI (SNB-19 CNS) was > 100 µM, the TGI (HCC-2998 colon) was 32.3 µM and the TGI (HCT-15 colon) was 82.8 µM. For the same molecule, the TGI (COLO 205 colon) was 34.4 µM, the TGI (T-47D breast) was > 100 µM and the TGI (SN12C renal) was 41.1 µM. For the same molecule, the TGI (TK-10 renal) was > 100 µM, the TGI (PC-3 prostate) was > 100 µM and the TGI (MCF7 breast) was 33.6 µM. For the same molecule, the TGI (BT-549 breast) was 44.1 µM, the TGI (HT29 colon) was 46.1 µM and the TGI (OVCAR-4 ovarian) was > 100 µM. The TGI (MDA-MB-435) was > 100 µM, the TGI (DU-145 prostate) was > 100 µM and the TGI (OVCAR-8 ovarian) was > 100 µM. The TGI (SK-MEL-2 melanoma) was 33.5 µM, the TGI (K-562 leukemia) was 57.8 µM and the TGI (HOP-62 NSCLC) was 71.7 µM. For the same molecule, the TGI (SF-268 CNS) was > 100 µM, the TGI (MALME-3M melanoma) was 81.8 µM and the TGI (RXF 393 renal) was 36.5 µM. For the same molecule, the TGI (UO-31 renal) was > 100 µM, the TGI (NCI-H522 lung) was 53.8 µM and the TGI (SF-295 CNS) was 46.5 µM. The TGI (SNB-75 CNS) was > 100 µM, the TGI (NCI-H460 lung) was 75.6 µM and the TGI (SF-539 CNS) was 36.5 µM. The TGI (HOP-92 NSCLC) was 66.1 µM, the TGI (EKVX NSCLC) was > 100 µM and the TGI (NCI-H23 lung) was 49.2 µM. For the same molecule, the TGI (786-0 renal) was 42 µM, the TGI (UACC-62 melanoma) was 27.4 µM and the TGI (NCI/ADR-RES ovarian) was > 100 µM. It also gave a TGI (OVCAR-5 ovarian) of 63.7 µM and a TGI (UACC-257 melanoma) of 69.5 µM.
